Source: ChEMBL document CHEMBL1201862, “PubChem BioAssay data set” (2004)
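Briefly, cells in 96-well plates were exposed to five compound concentrations for 48 h, and endpoints were estimated by linear interpolation. The concentration for 50% growth inhibition is given as GI50.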 Active and inactive are the calls of the source. Cut-off read from the data, not from the text of the source: active = GI50 up to about 1.1 µM and inactive = higher.

Key:
Assay in all cases: NCI tumour cell line growth inhibition, 48 h
786-0 = system: 786-0
A498 = system: A498
A549 = system: A549
ACHN = system: ACHN
BT-549 = system: BT-549
CAKI-1 = system: CAKI-1
CCRF-CEM = system: CCRF-CEM
COLO 205 = system: COLO 205
DU-145 = system: DU-145
EKVX = system: EKVX
HCC 2998 = system: HCC 2998
HCT-116 = system: HCT-116
HCT-15 = system: HCT-15
HL-60 = system: HL-60
HOP-62 = system: HOP-62
HOP-92 = system: HOP-92
HT-29 = system: HT-29
Hs-578T = system: Hs-578T
IGROV-1 = system: IGROV-1
K562 = system: K562
LOX IMVI = system: LOX IMVI
M14 = system: M14
MCF7 = system: MCF7
MDA-MB-231 = system: MDA-MB-231
MDA-MB-435 = system: MDA-MB-435
MDA-N = system: MDA-N
MOLT-4 = system: MOLT-4
NCI-H23 = system: NCI-H23
NCI-H460 = system: NCI-H460
NCI-H522 = system: NCI-H522
NCI/ADR-RES = system: NCI/ADR-RES
OVCAR-3 = system: OVCAR-3
OVCAR-4 = system: OVCAR-4
OVCAR-5 = system: OVCAR-5
OVCAR-8 = system: OVCAR-8
PC-3 = system: PC-3
RXF 393 = system: RXF 393
SF-268 = system: SF-268
SF-295 = system: SF-295
SF-539 = system: SF-539
SK-MEL-28 = system: SK-MEL-28
SK-MEL-2 = system: SK-MEL-2
SK-MEL-5 = system: SK-MEL-5
SN12C = system: SN12C
SNB-19 = system: SNB-19
SR = system: SR
SW-620 = system: SW-620
T47D = system: T47D
TK-10 = system: TK-10
U-251 = system: U-251
UACC-257 = system: UACC-257
UACC-62 = system: UACC-62
UO-31 = system: UO-31
KM12 = system: KM12
Malme-3M = system: Malme-3M
NCI-H226 = system: NCI-H226
SK-OV-3 = system: SK-OV-3

Compound: N#CCCSC1SC(=C2SC3=C(SCCS3)S2)SC1SCCC#N (configuration not stated)
- GI50 (786-0): > 100 µM (inactive)
- GI50 (A498): > 100 µM (inactive)
- GI50 (A549): > 100 µM (inactive)
- GI50 (ACHN): > 100 µM (inactive)
- GI50 (BT-549): > 100 µM (inactive)
- GI50 (CAKI-1): > 100 µM (inactive)
- GI50 (CCRF-CEM): > 100 µM (inactive)
- GI50 (COLO 205): > 100 µM (inactive)
- GI50 (DU-145): > 100 µM (inactive)
- GI50 (EKVX): > 100 µM (inactive)
- GI50 (HCC 2998): > 100 µM (inactive)
- GI50 (HCT-116): > 100 µM (inactive)
- GI50 (HCT-15): > 100 µM
- GI50 (HL-60): > 100 µM (inactive)
- GI50 (HOP-62): > 100 µM (inactive)
- GI50 (HOP-92): > 100 µM (inactive)
- GI50 (HT-29): > 100 µM (inactive)
- GI50 (Hs-578T): > 100 µM (inactive)
- GI50 (IGROV-1): > 100 µM (inactive)
- GI50 (K562): > 100 µM (inactive)
- GI50 (LOX IMVI): > 100 µM (inactive)
- GI50 (M14): > 100 µM (inactive)
- GI50 (MCF7): > 100 µM (inactive)
- GI50 (MDA-MB-231): > 100 µM (inactive)
- GI50 (MDA-MB-435): > 100 µM (inactive)
- GI50 (MDA-N): > 100 µM (inactive)
- GI50 (MOLT-4): > 100 µM (inactive)
- GI50 (NCI-H23): > 100 µM (inactive)
- GI50 (NCI-H460): > 100 µM (inactive)
- GI50 (NCI-H522): > 100 µM (inactive)
- GI50 (NCI/ADR-RES): > 100 µM (inactive)
- GI50 (OVCAR-3): > 100 µM (inactive)
- GI50 (OVCAR-4): > 100 µM (inactive)
- GI50 (OVCAR-5): > 100 µM (inactive)
- GI50 (OVCAR-8): > 100 µM (inactive)
- GI50 (PC-3): > 100 µM (inactive)
- GI50 (RXF 393): > 100 µM (inactive)
- GI50 (SF-268): > 100 µM (inactive)
- GI50 (SF-295): > 100 µM (inactive)
- GI50 (SF-539): > 100 µM (inactive)
- GI50 (SK-MEL-28): > 100 µM (inactive)
- GI50 (SK-MEL-2): > 100 µM (inactive)
- GI50 (SK-MEL-5): > 100 µM (inactive)
- GI50 (SN12C): > 100 µM (inactive)
- GI50 (SNB-19): > 100 µM (inactive)
- GI50 (SR): > 100 µM (inactive)
- GI50 (SW-620): > 100 µM (inactive)
- GI50 (T47D): > 100 µM (inactive)
- GI50 (TK-10): > 100 µM (inactive)
- GI50 (U-251): > 100 µM (inactive)
- GI50 (UACC-257): > 100 µM (inactive)
- GI50 (UACC-62): > 100 µM (inactive)
- GI50 (UO-31): > 100 µM (inactive)

Compound: CCN(CCO)CC1COc2ccccc2O1 (configuration not stated)
- GI50 (786-0): > 100 µM (inactive)
- GI50 (A498): > 100 µM (inactive)
- GI50 (A549): > 100 µM (inactive)
- GI50 (ACHN): > 100 µM (inactive)
- GI50 (BT-549): > 100 µM (inactive)
- GI50 (CAKI-1): > 100 µM (inactive)
- GI50 (CCRF-CEM): > 100 µM (inactive)
- GI50 (COLO 205): > 100 µM (inactive)
- GI50 (DU-145): > 100 µM (inactive)
- GI50 (EKVX): > 100 µM (inactive)
- GI50 (HCC 2998): > 100 µM (inactive)
- GI50 (HCT-116): > 100 µM (inactive)
- GI50 (HCT-15): > 100 µM
- GI50 (HL-60): > 100 µM (inactive)
- GI50 (HOP-62): > 100 µM (inactive)
- GI50 (HOP-92): > 100 µM (inactive)
- GI50 (HT-29): > 100 µM (inactive)
- GI50 (Hs-578T): > 100 µM (inactive)
- GI50 (IGROV-1): > 100 µM (inactive)
- GI50 (K562): > 100 µM (inactive)
- GI50 (KM12): > 100 µM (inactive)
- GI50 (LOX IMVI): > 100 µM (inactive)
- GI50 (M14): > 100 µM (inactive)
- GI50 (MCF7): > 100 µM (inactive)
- GI50 (MDA-MB-231): > 100 µM (inactive)
- GI50 (MDA-MB-435): > 100 µM (inactive)
- GI50 (MDA-N): > 100 µM (inactive)
- GI50 (MOLT-4): > 100 µM (inactive)
- GI50 (Malme-3M): > 100 µM (inactive)
- GI50 (NCI-H226): > 100 µM (inactive)
- GI50 (NCI-H23): > 100 µM (inactive)
- GI50 (NCI-H460): > 100 µM (inactive)
- GI50 (NCI-H522): > 100 µM (inactive)
- GI50 (NCI/ADR-RES): > 100 µM (inactive)
- GI50 (OVCAR-3): > 100 µM (inactive)
- GI50 (OVCAR-4): > 100 µM (inactive)
- GI50 (OVCAR-5): > 100 µM (inactive)
- GI50 (OVCAR-8): > 100 µM (inactive)
- GI50 (PC-3): > 100 µM (inactive)
- GI50 (RXF 393): > 100 µM (inactive)
- GI50 (SF-268): > 100 µM (inactive)
- GI50 (SF-295): > 100 µM (inactive)
- GI50 (SF-539): > 100 µM (inactive)
- GI50 (SK-MEL-28): > 100 µM (inactive)
- GI50 (SK-MEL-5): > 100 µM (inactive)
- GI50 (SK-OV-3): > 100 µM (inactive)
- GI50 (SN12C): > 100 µM (inactive)
- GI50 (SR): > 100 µM (inactive)
- GI50 (T47D): > 100 µM (inactive)
- GI50 (TK-10): > 100 µM (inactive)
- GI50 (U-251): > 100 µM (inactive)
- GI50 (UACC-257): > 100 µM (inactive)
- GI50 (UACC-62): > 100 µM (inactive)
- GI50 (UO-31): > 100 µM (inactive)
